Experiments:
[1] = tested on: mice; experiment: Muscular relaxing effect, Pinna Reflex Test (P.r), oral, mice; format: in vivo, dd Male mice; conditions: Mus musculus, oral, mice; for responders at 500 mg/kg: Table 2, read-out: Inhibition percent of the central muscular relaxing effect, P.r (Pinna Reflex Test)
Description: (§1) dd Male mice weighing 18 to 22 g, one group consisting of 10 animals, were orally given the compounds (I) to (V) as indicated below suspended in 0.2% carboxymethylcellulose solution in a dose of 0.25ml/10g-body weight. Mephenesin was used as active placebo.
Pinna reflex was observed by using mandolin wire for 1/4 injection syringe.

[2] = tested on: mice; experiment: Muscular relaxing effect, Righting Reflex Test (R.r), oral, mice; format: in vivo, dd Male mice; conditions: Mus musculus, oral, mice; for responders at 500 mg/kg: Table 2, read-out: Inhibition percent of the central muscular relaxing effect, R.r (Righting Reflex Test)
Description: as §1

[3] = tested on: carrageenan-induced edema in rats; experiment: Antiinflammatory effect on carrageenan-induced edema; format: in vivo, Wistar male rats; conditions: 200 mg/kg oral
Description: […] One hour after the administration of the test compounds, the hind paw was given a subcutaneous injection of 0.05ml of 0.5% carrageenan saline solution, and volume of the hind paw was measured at 1, 2, 3, 4, 5 and 6 hours after the injection of carrageenan by a volume differential meter. Inhibitory percent was calculated based on the swelling in the control. Phenybutazone was used as active placebo.

[4] = tested on: mice; experiment: Muscular relaxing effect, Corneal Reflex Test (C.r), oral, mice; format: in vivo, dd Male mice; conditions: Mus musculus; Table 2; 500 mg/kg; oral; mice; read-out: Inhibition percent of the central muscular relaxing effect, C.r (Corneal Reflex Test)
Description: as §1
Corneal reflex was observed by using mandolin wire for 1/4 injection syringe.

[5] = tested on: pain threshold in mice; experiment: Analgetic effect, Pressure Test (pain threshold, tail pressure); format: in vivo, dd Male mice; conditions: 100 mg/kg oral; for Pain threshold, Mean ± SE, 30 min / Pain threshold, Mean ± SE, 60 min / Pain threshold, Mean ± SE, 90 min / Pain threshold, Mean ± SE, 120 min: *p <0.05, **p <0.01, ***p <0.001
Description: dd Male mice weighing 18 to 22 g (pain threshold ranging within 30 to 50 mmHg), one group consisting of 10 animals, were given orally the test compounds suspended in 0.2% carboxymethylcellulose solution in a dose of 100mg/kg-body weight. Pain threshold were measured at 30, 60, 90 and 120 minutes after the administration of the test compounds while pain reaction occurring by application of pressure on tails of animals was referred to as indication. Aminopyrine was used as active placebo.

[6] = tested on: mice; experiment: Muscular relaxing effect, Traction Test (T.T), oral, mice; format: in vivo, dd Male mice; conditions: Mus musculus, oral, mice; for responders at 500 mg/kg: Table 2, read-out: Inhibition percent of the central muscular relaxing effect, T.T (Traction Test)
Description: as §1

[7] = tested on: mice; experiment: Muscular relaxing effect, Inclined Plane Test (I.P), oral, mice; format: in vivo, dd Male mice; conditions: Mus musculus, oral, mice; for responders at 500 mg/kg: Table 2, read-out: Inhibition percent of the central muscular relaxing effect, I.P (Inclined Plane Test)
Description: as §1
Mice were placed on veneer inclined at an angle of 30° and on wire-netting inclined at an angle of 60° of which one division is 5 mm square, and mice sliding down were observed as positive, in comparison with normal behavior.

[8] = tested on: mice; experiment: Muscular relaxing effect, Rotarod Method (R.R), oral, mice; format: in vivo, dd Male mice; conditions: Mus musculus, oral, mice; for responders at 500 mg/kg: Table 2, read-out: Inhibition percent of the central muscular relaxing effect, R.R (Rotarod Method)
Description: as §1
Mice were placed on Rotar Load (made by Natsume Seisakusho Co., Ltd.) having a diameter of 3 cm rotating at a speed of 10 rpm and falling (occurring within 3 minutes) was observed.

[9] = tested on: acetic acid-induced writhing syndrome in mice; experiment: Analgetic effect, Acetic Acid-Induced Writhing Method; format: in vivo, dd Male mice; conditions: 100 mg/kg oral, 30 min before acetic acid; for Writhing syndrome (number within 20 minutes): control 52.1 ± 2.7; for Inhibitory per cent (writhing): vs control
Description: dd Male mice weighing 18 to 22g, one group consisting of 10 animals, were given the intraperitoneal injection of 0.6% acetic acid in a dose of 0.1ml/10g-body weight. The number of writhing syndromes occurring within 20 minutes after injection was observed. Animals were orally given the test compounds suspended in 0.2% carboxymethylcellulose solution 30 minutes before the injection of acetic acid in a dose of 100mg/kg-body weight. Inhibitory percent was estimated in comparison with a control given the 0.2% carboxymethycellulose solution only. Aminopyrine was used as active placebo.

[10] = Table 1, maximum response 15-180 min, Litchfield Wilcoxon

Structure (SMILES)	responders at 500 mg/kg [1] [%]	responders at 500 mg/kg [2] [%]	Inhibitory per cent, carrageenan-induced edema, 1 hr ([3]; Table 6) [per cent]	Inhibitory per cent, carrageenan-induced edema, 2 hrs. ([3]; Table 6) [per cent]	Inhibitory per cent, carrageenan-induced edema, 3 hrs. ([3]; Table 6) [per cent]	Inhibitory per cent, carrageenan-induced edema, 4 hrs. ([3]; Table 6) [per cent]	Inhibitory per cent, carrageenan-induced edema, 5 hrs. ([3]; Table 6) [per cent]	Inhibitory per cent, carrageenan-induced edema, 6 hrs. ([3]; Table 6) [per cent]	responders at 500 mg/kg [4] [%]	Pain threshold Increase Ratio [5]	Pain threshold, Mean ± SE, 30 min [5] [mmHg]	Pain threshold, Mean ± SE, 60 min [5] [mmHg]	Pain threshold, Mean ± SE, 90 min [5] [mmHg]	Pain threshold, Mean ± SE, 120 min [5] [mmHg]	responders at 500 mg/kg [6] [%]	responders at 500 mg/kg [7] [%]	responders at 500 mg/kg [8] [%]	Writhing syndrome (number within 20 minutes) [9]	Inhibitory per cent (writhing) [9] [per cent]	other results
O=C1NCC(Cc2ccccc2C(F)(F)F)O1 (stereo not drawn) [VIII, 5-(o-trifluoromethylbenzyl)-2-oxazolidone]	10	10	21.7	49.7	27.4	35.6	9.2	0.5	0	1.28	62.0 ± 4.6	60.2 ± 3.0	57.5 ± 3.2	52.9 ± 2.0	40	40	90	–	–	–
O=C1NCC(Cc2ccccc2Br)O1 (stereo not drawn) [XII, 5-(o-bromobenzyl)-2-oxazolidone]	20	0	–	–	–	–	–	–	0	1.24	59.6 ± 3.4	59.4 ± 3.7	57.5 ± 1.9	52.7 ± 2.1	60	80	100	–	–	–
O=C1NCC(Cc2ccccc2)O1 (stereo not drawn) [I, 5-benzyl-2-oxazolidone]	–	–	–	–	–	–	–	–	–	1.34	58.2 ± 3.2	57.8 ± 3.2	51.5 ± 2.8	50.7 ± 2.2	–	–	–	42.3 ± 5.9	18.9	ED50 [1, 10]: 800 mg/kg; ED50 [2, 10]: 1100 mg/kg; Inhibitory per cent, carrageenan-induced edema, 3 hrs. ([3]; Table 5): 49.5 per cent; Inhibitory per cent, carrageenan-induced edema, 6 hrs. ([3]; Table 5): 13.0 per cent; ED50 [6, 10]: 660 mg/kg; ED50 [7, 10]: 940 mg/kg; ED50 [8, 10]: 460 mg/kg
Cc1c(N(C)C)c(=O)n(-c2ccccc2)n1C [Aminopyrine, reference compound]	–	–	–	–	–	–	–	–	–	2.20	75.7 ± 5.4	67.3 ± 5.4	70.8 ± 5.3	53.1 ± 4.5	–	–	–	19.3 ± 6.0	62.9	–
O=C1NCC(Cc2ccccc2F)O1 (stereo not drawn) [XIII, 5-(o-fluorobenzyl)-2-oxazolidone]	0	20	–	–	–	–	–	–	10	1.13	52.1 ± 3.4	53.7 ± 2.6	50.4 ± 2.8	47.3 ± 1.8	70	50	90	–	–	–
O=C1NCC(Cc2ccc(F)cc2)O1 (stereo not drawn) [Compound XI, 5-(p-fluorobenzyl)-2-oxazolidone]	60	10	38.3	47.5	44.5	34.4	9.2	8.9	0	–	–	–	–	–	90	80	100	–	–	–
